Measured values: the supplement of paper PMC11061612

What was measured:
Experiment in all cases: combination Emax (second highest fraction inhibited in the dose matrix, 72 h); higher = more inhibition; extreme values may be limits of the assay
[1] = tested on: EVSA-T (Breast Carcinoma)
Procedure, shortened: (§1)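 Cell lines grown in DMEM/F12 or RPMI with 10% FBS were plated in 1536-well plates and held 24 hours at 37°C, 5% CO2 before 72 hours of exposure to two-drug dose matrices, with DMSO typically at 0.2%. CellTiter-Glo 2.0 luminescence gave viability, which was converted to inhibition. Vehicle wells were set to 0 and blank wells to 1. Combination Emax is the second-highest inhibition in the matrix, and Bliss excess is the observed combination effect minus the expected EA + EB − EA·EB, where EA and EB are the single-agent effects.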

[2] = tested on: K-562 (Chronic Myelogenous Leukemia)
Procedure, shortened: as §1

MEL-JUSO (Melanoma) = tested on: MEL-JUSO (Melanoma)
Procedure, shortened: as §1

[3] = tested on: TE-6 (Esophageal Squamous Cell Carcinoma)
Procedure, shortened: as §1

[4] = tested on: PANC-08-13 (Pancreatic Carcinoma)
Procedure, shortened: as §1

U251 (Low Grade Glioma) = tested on: U251 (Low Grade Glioma)
Procedure, shortened: as §1

WIL2-NS (Non-Cancerous) = tested on: WIL2-NS (Non-Cancerous)
Procedure, shortened: as §1

[5] = tested on: TOV-112D (Ovarian Carcinoma)
Procedure, shortened: as §1

[6] = tested on: MKN28 (Gastric Carcinoma)
Procedure, shortened: as §1

CHP-212 (Neuroblastoma) = tested on: CHP-212 (Neuroblastoma)
Procedure, shortened: as §1

[7] = tested on: SW1417 (Colorectal Carcinoma)
Procedure, shortened: as §1

[8] = tested on: KYSE-180 (Esophageal Squamous Cell Carcinoma)
Procedure, shortened: as §1

[9] = tested on: HL-60 (Acute Myeloid Leukemia)
Procedure, shortened: as §1

[10] = tested on: KARPAS-45 (T-Lymphoblastic Leukemia)
Procedure, shortened: as §1

[11] = tested on: MS751 (Cervical Carcinoma)
Procedure, shortened: as §1

[12] = tested on: L-540 (Hodgkin's Lymphoma)
Procedure, shortened: as §1

[13] = tested on: CAMA-1 (Breast Carcinoma)
Procedure, shortened: as §1

[14] = tested on: BFTC-905 (Bladder Carcinoma)
Procedure, shortened: as §1

[15] = tested on: SU-DHL-8 (B-Cell Non-Hodgkin's Lymphoma)
Procedure, shortened: as §1

[16] = tested on: SW837 (Colorectal Carcinoma)
Procedure, shortened: as §1

Row | SMILES | combination Emax [1] | combination Emax [2] | combination Emax (MEL-JUSO (Melanoma)) | combination Emax [3] | combination Emax [4] | combination Emax (U251 (Low Grade Glioma)) | combination Emax (WIL2-NS (Non-Cancerous)) | combination Emax [5] | combination Emax [6] | combination Emax (CHP-212 (Neuroblastoma)) | combination Emax [7] | combination Emax [8] | combination Emax [9] | combination Emax [10] | combination Emax [11] | combination Emax [12] | combination Emax [13] | combination Emax [14] | combination Emax [15] | combination Emax [16]
1 | COc1cc2ncnc(Nc3ccc(F)c(Cl)c3)c2cc1OCCCN1CCOCC1 [Gefitinib] + CC(C)n1c(=O)n(C)c2cnc3cc(F)c(-c4ccc(OCCCN5CCCCC5)nc4)cc3c21 [AZD1390] (first compound max 10 µM, 7x7, partner max 0.3 µM) | 0.27 | 0.13 | 0.114 | 0.685 | 0.143 | 0.0432 | 0.397 | 0.276 | 0.0764 | 0.157 | 0.164 | 0.246 | 0.0178 | 0.644 | 0.133 | 0.451 | 0.111 | 0.212 | 0.142 | 0.128
2 | CS(=O)(=O)CCNCc1ccc(-c2ccc3ncnc(Nc4ccc(OCc5cccc(F)c5)c(Cl)c4)c3c2)o1 [Lapatinib] + C[C@@H](Oc1cc(-c2cnn(C3CCNCC3)c2)cnc1N)c1c(Cl)ccc(F)c1Cl [Crizotinib] (first compound max 10 µM, 7x7, partner max 10 µM) | 0.985 | 0.962 | 0.912 | 0.835 | 0.802 | 0.785 | 0.607 | 0.791 | 0.779 | 0.988 | 0.669 | 0.952 | 0.941 | 1 | 0.987 | 0.911 | 0.321 | 0.963 | 0.694 | 0.772
3 | CC(=O)c1c(C)c2cnc(Nc3ccc(N4CCNCC4)cn3)nc2n(C2CCCC2)c1=O [Palbociclib] + CC1(C)CCC(CN2CCN(c3ccc(C(=O)NS(=O)(=O)c4ccc(NCC5CCOCC5)c([N+](=O)[O-])c4)c(Oc4cnc5[nH]ccc5c4)c3)CC2)=C(c2ccc(Cl)cc2)C1 [Venetoclax] (first compound max 10 µM, 7x7, partner max 1 µM) | 0.209 | 0.0413 | 0.143 | 0.264 | 0.157 | 0.153 | 0.727 | 0.443 | 0.0507 | 0.481 | 0.147 | 0.188 | 0.736 | 1 | 0.128 | 0.257 | 0.142 | 0.326 | 0.37 | 0.0079
4 | CC(=O)c1c(C)c2cnc(Nc3ccc(N4CCNCC4)cn3)nc2n(C2CCCC2)c1=O [Palbociclib] + Cc1c2c(nn1C)CSCc1cc(n(C)n1)CSc1cc(c3ccccc3c1)OCCCc1c(C(=O)O)n(C)c3c-2c(Cl)ccc13 [AZD5991] (first compound max 10 µM, 7x7, partner max 1 µM) | 0.967 | 0.132 | 0.305 | 0.425 | 0.221 | 0.297 | 0.737 | 0.776 | 0.133 | 0.882 | 0.229 | 0.638 | 0.994 | 0.99 | 0.833 | 0.981 | 0.408 | 0.474 | 0.683 | 0.161
5 | CC(=O)c1c(C)c2cnc(Nc3ccc(N4CCNCC4)cn3)nc2n(C2CCCC2)c1=O [Palbociclib] + Cn1cnc2c(F)c(Nc3ccc(Br)cc3Cl)c(C(=O)NOCCO)cc21 [Selumetinib] (first compound max 10 µM, 7x7, partner max 10 µM) | 0.287 | 0.237 | 0.425 | 0.425 | 0.221 | 0.297 | 0.74 | 0.473 | 0.3 | 0.979 | 0.512 | 0.203 | 0.667 | 0.964 | 0.236 | 0.25 | 0.102 | 0.746 | 0.32 | 0.532
6 | COc1cccc(OCCCN)c1-c1cc(Nc2cnc(C#N)cn2)n[nH]1 [Prexasertib] + C=CCn1c(=O)c2cnc(Nc3ccc(N4CCN(C)CC4)cc3)nc2n1-c1cccc(C(C)(C)O)n1 [AZD1775] (first compound max 1 µM, partner max 1 µM) | 0.532 | 0.98 | 0.747 | 0.767 | 0.544 | 0.783 | 1 | 0.815 | 0.725 | 0.811 | 0.64 | 0.983 | 0.97 | 1 | 0.701 | 0.967 | 0.545 | 0.96 | 0.964 | 0.79
7 | COc1cccc(OCCCN)c1-c1cc(Nc2cnc(C#N)cn2)n[nH]1 [Prexasertib] + CCc1c2c(nc3ccc(O)cc13)-c1cc3c(c(=O)n1C2)COC(=O)[C@]3(O)CC [SN-38] (first compound max 1 µM, 7x7, partner max 0.3 µM) | 0.986 | 0.983 | 0.707 | 0.884 | 0.702 | 0.984 | 1 | 0.987 | 0.742 | 0.827 | 0.856 | 1 | 0.982 | 1 | 0.984 | 0.95 | 0.507 | 0.983 | 1 | 0.844
8 | COc1cccc(OCCCN)c1-c1cc(Nc2cnc(C#N)cn2)n[nH]1 [Prexasertib] + CN(C)CCCOc1ccc(-c2ccc3ncc4c(c3c2)n(C2CCOCC2)c(=O)n4C)cn1 [AZD0156] (first compound max 1 µM, 7x7, partner max 1 µM) | 0.252 | 0.979 | 0.751 | 0.567 | 0.467 | 0.613 | 1 | 0.614 | 0.597 | 0.782 | 0.619 | 0.983 | 0.956 | 0.971 | 0.378 | 0.968 | 0.327 | 0.888 | 0.964 | 0.803
9 | COc1cccc(OCCCN)c1-c1cc(Nc2cnc(C#N)cn2)n[nH]1 [Prexasertib] + C[C@@H]1COCCN1C2=NC(=NC(=C2)C3(CC3)[S@](=N)(=O)C)C4=C5C=CNC5=NC=C4 [AZD6738] (first compound max 1 µM, 7x7, partner max 10 µM) | 0.343 | 0.985 | 0.695 | 0.695 | 0.49 | 0.652 | 1 | 0.796 | 0.597 | 0.788 | 0.629 | 0.989 | 0.971 | 0.979 | 0.383 | 0.963 | 0.417 | 0.917 | 0.964 | 0.752
10 | COc1cccc(OCCCN)c1-c1cc(Nc2cnc(C#N)cn2)n[nH]1 [Prexasertib] + Cc1cc2ncnn2cc1Nc1ncc2c(n1)n(C1CCOCC1)c(=O)n2C [AZD7648] (first compound max 1 µM, 7x7, partner max 10 µM) | 0.358 | 0.948 | 0.712 | 0.554 | 0.587 | 0.622 | 1 | 0.711 | 0.575 | 0.814 | 0.667 | 0.974 | 0.961 | 0.981 | 0.453 | 0.962 | 0.384 | 0.856 | 0.968 | 0.749
11 | COc1cccc(OCCCN)c1-c1cc(Nc2cnc(C#N)cn2)n[nH]1 [Prexasertib] + O=C(c1cc(Cc2n[nH]c(=O)c3ccccc23)ccc1F)N1CCN(C(=O)C2CC2)CC1 [Olaparib] (first compound max 1 µM, 7x7, partner max 10 µM) | 0.433 | 0.891 | 0.686 | 0.476 | 0.536 | 0.733 | 1 | 0.796 | 0.46 | 0.756 | 0.614 | 0.983 | 0.961 | 0.979 | 0.465 | 0.975 | 0.37 | 0.848 | 0.943 | 0.645
12 | COc1cc2c(cc1OCCCCCOc1cc3c(cc1OC)C(=O)N1C=C(C)C[C@H]1C=N3)N=C[C@@H]1CC(C)=CN1C2=O [SG3199] + O=C(c1cc(Cc2n[nH]c(=O)c3ccccc23)ccc1F)N1CCN(C(=O)C2CC2)CC1 [Olaparib] (first compound max 0.001 µM, 7x7, partner max 10 µM) | 0.276 | 0.134 | 0.0923 | 0.117 | 0.101 | 0.183 | 0.247 | 0.269 | 0.0709 | 0.384 | 0.0642 | 0.0586 | 0.133 | 0.0966 | 0.176 | 0.32 | 0.109 | 0.152 | 0.55 | 0.0782
13 | CCc1c2c(nc3ccc(O)cc13)-c1cc3c(c(=O)n1C2)COC(=O)[C@]3(O)CC [SN-38] + CN(C)CCCOc1ccc(-c2ccc3ncc4c(c3c2)n(C2CCOCC2)c(=O)n4C)cn1 [AZD0156] (first compound max 0.3 µM, 7x7, partner max 1 µM) | 0.421 | 0.752 | 0.263 | 0.313 | 0.131 | 0.897 | 1 | 0.965 | 0.451 | 0.747 | 0.662 | 0.411 | 0.968 | 0.305 | 0.883 | 0.951 | 0.208 | 0.957 | 0.992 | 0.343
